Experimental data from article PMC11521309, “A novel 4-aminoquinoline chemotype with multistage antimalarial activity and lack of cross-resistance with PfCRT and PfMDR1 mutants” (PLOS Pathogens, 2024).
Values joined by “and” are separate entries in the source; they are usually repeats but may differ in a detail not shown here. Equal values may be shown once. Read-outs that look alike come from different tables or passages of the source.

Experiments:
[1] = tested on: P. falciparum Dd2^Dd2; design: key to Phenotype, Dd2^Dd2: S: sensitive; R: resistant; settings: cited from earlier work
[2] = tested on: P. falciparum NF10^NF; design: method as in ref 1 Veiga et al. 2016; settings: means ± SEM, N 6; ref 1 Veiga et al. 2016; read-out: IC50 NF10NF; cited from earlier work
[3] = tested on: P. falciparum NF10^YF; design: method as in ref 1 Veiga et al. 2016; settings: means ± SEM, N 6; ref 1 Veiga et al. 2016; read-out: IC50 NF10YF; cited from earlier work
[4] = tested on: P. falciparum Dd2^3D7; design: key: S: sensitive; R: resistant; settings: ref [19],[20],[51]; cited from earlier work
[5] = tested on: P. falciparum FCB; settings: read-out: IC50 FCB; means ± SEM, N 4; ref 2 Sidhu et al. 2006; cited from earlier work
[6] = tested on: P. falciparum 7G8^F145I; design: key to Phenotype, 7G8^F145I: S: sensitive; R: resistant; settings: cited from earlier work
[7] = tested on: P. falciparum NF54-Pfs16-GFP-Luc stage IV-V gametocytes; test: Mature gametocyte (stages IV-V) viability, luciferase, 48 h; type: cell-based, Plasmodium falciparum; settings: 5 μM
Protocol: P. falciparum NF54-Pfs16-GFP-Luc (MRA-1217), a highly gametocyte-producing strain, was cultured following standard procedures. NF54-Luc ABS parasites were sorbitol-synchronized as previously described and cultured to reach 8–10% parasitemia as mature trophozoites prior to starting gametogenesis induction via nutrient deficit stress. Briefly, stress was induced by replacing only 40% of the culture medium and returning cultures to a 37°C incubation. Cultures were treated with 50 mM N-acetylglucosamine for 10 days to remove ABS parasites. Mature gametocytes (stages IV-V) were isolated using magnetic columns and incubated at 2% gametocytemia and 1.5% hematocrit in 96-well plates containing the test compounds for 48 hours at 37°C, following standard P. falciparum culturing conditions. Methylene blue was used as a gametocytocidal control alongside drug-free wells. Luciferase activity was assessed by adding 40 μL of luciferin substrate (Promega) to 40 μL of parasite lysates and detecting bioluminescence at an integration constant of 10s with the BioTek Cytation 5 Cell Imaging Multimode Reader.

[8] = tested on: P. falciparum Dd2-Polδ parent culture; test: ABS susceptibility after resistance selection, parental line; type: cell-based, Plasmodium falciparum; settings: for % Parasite survival: Dd2 Pol D parent, rep 1-5
Protocol: (§1) P. falciparum ABS parasites were cultured at 3% hematocrit in human O^+ RBCs in RPMI-1640 media supplemented with 25 mM HEPES, 50 mg/L hypoxanthine, 2 mM L-glutamine, 0.21% sodium bicarbonate, 0.5% (w/v) AlbuMAXII (Invitrogen) and 10 μg/mL gentamycin. Culture flasks were kept in modular incubator chambers (Billups-Rothenberg) in a 5% O2, 5% CO2, and 90% N2 atmosphere at 37°C. Synchronized ring-stage parasites were obtained by two consecutive rounds of treatment with 5% D-sorbitol in 48-hour intervals. […] This was done by exposing cultures at 1% hematocrit and 0.3% parasitemia in 96-well plates in the presence of drugs in a two-fold 10 or 12-point serial dilution in duplicate along with drug-free controls. After a 72-hour incubation, parasite survival was assessed by flow cytometry on an iQue flow cytometer (Sartorius) using SYBR Green and MitoTracker Deep Red FM (Life Technologies) as nuclear stain and vital dye, respectively. Parasite survival was determined as a percentage relative to drug-free control. IC50 values were interpolated from log concentration versus response curves in Prism 9 (GraphPad Prism Software Inc.).
(§2) Resistance to LDT-623 was assessed using single-step in vitro resistance selection protocols. […] Dd2-Pol δ is a hypermutable line with two point mutations in DNA polymerase δ that compromise its proofreading activity Cultures were monitored daily by thin blood smears until live parasites were no longer detectable. Drug-containing media was changed daily until parasites cleared, and every other day thereafter. Cultures were passaged once weekly by reducing the volume by 25% and replacing 1/3 of RBCs. Recrudescence monitoring was carried out twice a week by thin blood smears for 60 days. In the event of recrudescence, parasite susceptibility to LDT-623 was tested as described above.

[9] = tested on: pool of barcoded P. falciparum lines (Dd2 and 3D7 backgrounds); test: Resistome growth assay, pool of 51 barcoded lines; type: cell-based, Plasmodium falciparum; settings: 3 × IC50 constant, 14 days
Protocol: The resistome growth assay employs a parasite pool consisting of 51 barcoded lines including both Dd2 and 3D7 genetic backgrounds, with wild-type lines for both (S3 Table). Most lines used were derived from in vitro resistance selection experiments, with others having been CRISPR edited. All lines were barcoded via CRISPR editing of a 101bp barcode cassette into the non-essential pfpare locus (PF3D7_0709700). Parasites were cultured in RPMI-1640 medium supplemented with HEPES (5.94 g/L), NaHCO3 (2.1 g/L), glutamax (1×), hypoxanthine (50 mg/L), gentamycin ([…]), and AlbumaxII (5 g/L) at a […]. Parasite growth was monitored over 14 days by flow cytometry (Cytoflex, Beckman Coulter) by staining with 1× SYBR Green and 0.2 μM MitoTracker Deep Red. Parasitemia adjustments were made to maintain a healthy range of <5% parasitemia. Parasite cultures were harvested at day 14 and lysed by saponin (0.05%), with pellets washed twice with PBS. Barcodes were PCR amplified using 5 μL of parasite pellet and sequenced by Illumina amplicon sequencing.

[10] = tested on: P. falciparum FCB; test: ABS susceptibility, pfmdr1-modified line; type: cell-based; settings: Plasmodium falciparum
Protocol: as §1

[11] = tested on: P. falciparum NF10^NF; test: ABS susceptibility, pfmdr1-modified line; type: cell-based; settings: Plasmodium falciparum
Protocol: as §1

[12] = tested on: P. falciparum NF10^YF; test: ABS susceptibility, pfmdr1-modified line; type: cell-based; settings: Plasmodium falciparum
Protocol: as §1

[13] = tested on: P. falciparum Dd2-Pol δ parasites; test: Single-step in vitro resistance selection; type: cell-based, Plasmodium falciparum
Protocol: as §2

CCN(CC)CCCC(C)Nc1ccnc2cc(Cl)ccc12 (stereo not drawn) [CQ, chloroquine]
IC50 ([1]; Dd2Dd2, mean ± SEM, ref 1 (Ross et al., 2018)): 156 ± 9.3 nM | IC90 ([1]; Dd2Dd2, mean ± SEM, ref 2 (Dhingra et al., 2019)): 214 ± 7.4 nM | Phenotype, Dd2^Dd2 ([1]; ref [19],[20],[51]): R | IC50 [2]: 216 ± 15.3 nM | IC50 [3]: 347 ± 24.4 nM | Phenotype, Dd2^3D7 [4]: S | IC50 [5]: 217 ± 34.6 nM | IC50 ([6]; 7G8F145I, mean ± SEM, ref 3 (Kim et al., 2019)): 7.3 ± 0.4 nM | Phenotype, 7G8^F145I ([6]; ref [19],[20],[51]): S

COc1cc2nccc(Nc3cccc(Oc4ccccc4)c3)c2cc1OC [LDT-623]
% Inhibition of viability, mature gametocytes ([7]; mean, N = 3): 62% and 61.67% | % Inhibition of viability, mature gametocytes ([7]; single replicates): 78.00% and 67.00% and 40.00% | mean AUC of survival curve ([8]; Dd2-Polδ parent culture): 35.4 | % Parasite survival ([8]; 0.09 uM): 76.35% and 85.80% and 91.78% and 97.25% | % Parasite survival ([8]; 0.19 uM): 89.20% and 72.57% and 70.57% and 79.41% and 83.99% | % Parasite survival ([8]; 25 uM): 0.00% and 0.89% | % Parasite survival ([8]; 50 uM): 0.00% and 1.83% | growth recovery of barcoded pool [9]: no growth recovery | IC50 ([10]; read-out: IC50 FCB): 414 ± 12.9 nM | IC90 ([10]; read-out: IC90 FCB): 4430 ± 164 nM | IC50 ([11]; read-out: IC50 NF10NF): 400 ± 28.2 nM | IC90 ([11]; read-out: IC90 NF10NF): 580 ± 13 nM | IC50 ([12]; read-out: IC50 NF10YF): 360.2 ± 1.9 nM | IC90 ([12]; read-out: IC90 NF10YF): 562.9 ± 2.8 nM | recrudescence under constant drug pressure ([13]; 3 × IC50 (1 μM), 1 × 10^9 parasites, 60 days): No parasite recrudescence | log minimum inoculum of resistance (MIR) ([13]; constant drug pressure): higher than 9 | day of recrudescence ([13]; drug pressure removed after day 7, both flasks): 21 days | IC50 of recrudescent bulk parasites vs Dd2-Polδ parent ([13]; either flask): no difference in IC50
